inhibition, logD and efficacy data for two molecules are collected here from patent EP2338890A1, “4,7-Diazaindole derivatives and their use as fungicides” (Bayer CropScience AG, priority 2009, dated 2011).

The test system of series [1] is Fusarium proliferatum. Nature of the series: microbe, parasite or virus in culture. The class given is cell-based. The settings on record: 120 h, read-out: inhibition of Fumonisin FB1 production.
Series [2] relates to Fusarium graminearum. Nature of the series: microbe, parasite or virus in culture. The class given is cell-based.
The nature of series [3]: logP at pH 3.5, given with the characterisation data. The settings on record: pH3.5. The class given is physicochemical.
The subject of series [4] is Alternaria solani. Nature of the series: Alternaria test (tomato) / preventive. The class given is in vivo. The settings on record: 500ppm of active ingredient, evaluated 7 days after the inoculation. The procedure: (§1) To produce a suitable preparation of active compound, 1 part by weight of active compound is mixed with the stated amounts of solvent and emulsifier, and the concentrate is diluted with water to the desired concentration.
To test for preventive activity, young plants are sprayed with the preparation of active compound at the stated rate of application. One day after this treatment, the plants are inoculated with an aqueous spore suspension of Alternaria solani. The plants remain for one day in an incubation cabinet at approximately 22°C and a relative atmospheric humidity of 100%. Then the plants are placed in an incubation cabinet at approximately 20°C and a relative atmospheric humidity of 96%.
The test is evaluated 7 days after the inoculation. 0% means an efficacy which corresponds to that of the control while an efficacy of 100% means that no disease is observed.

For series [5], the system named is Pyrenophora teres. Nature of the series: Pyrenophora test (barley) / preventive. To be noted: 500ppm of active ingredient, evaluated 7-9 days after the inoculation. The class given is in vivo. The procedure: as §1
To test for preventive activity, young plants are sprayed with the preparation of active compound at the stated rate of application. One day after this treatment, the plants are inoculated with an aqueous spore suspension of Pyrenophora teres. The plants remain for 48 hours in an incubation cabinet at 22°C and a relative atmospheric humidity of 100%. Then the plants are placed in a greenhouse at a temperature of approximately 20°C and a relative atmospheric humidity of approximately 80%.
The test is evaluated 7-9 days after the inoculation. 0% means an efficacy which corresponds to that of the control while an efficacy of 100% means that no disease is observed.

In series [6] the test system is Botrytis cinerea. Nature of the series: Botrytis test (beans) / protective. The class given is in vivo. The settings on record: 250ppm of active ingredient, lesion size 2 days after the inoculation. The procedure: as §1
To test for protective activity, young plants are sprayed with the preparation of active compound. After the spray coating has dried on, 2 small pieces of agar covered with growth of Botrytis cinerea are placed on each leaf. The inoculated plants are placed in a darkened chamber at 20°C and a relative atmospheric humidity of 100%.
2 days after the inoculation, the size of the lesions on the leaves is evaluated. 0% means an efficacy which corresponds to that of the control, while an efficacy of 100% means that no disease is observed.

In series [7] the test system is Fusarium graminearum. The class given is in vivo. To be noted: barley, preventive, 1000ppm of active ingredient, evaluated 5 days after the inoculation.
Series [8] has as its system Venturia inaequalis. Put plainly: Venturia test (apples) / protective. The class given is in vivo. The settings on record: 100ppm of active ingredient, evaluated 10 days after the inoculation. Here is the method: as §1
To test for protective activity, young plants are sprayed with the preparation of active compound at the stated rate of application. After the spray coating has dried on, the plants are inoculated with an aqueous conidia suspension of the causal agent of apple scab (Venturia inaequalis) and then remain for 1 day in an incubation cabinet at approximately 20°C and a relative atmospheric humidity of 100 %.
The plants are then placed in a greenhouse at approximately 21°C and a relative atmospheric humidity of approximately 90 %.
The test is evaluated 10 days after the inoculation. 0% means an efficacy which corresponds to that of the control, while an efficacy of 100% means that no disease is observed.

Like-named read-outs stand apart in the source and are kept apart here.

Broadly, the logD is the decadic logarithm of the distribution of all forms, ionised or not, between an organic phase and buffer at a given pH. A high value points to a more lipophilic compound.

For the molecule `Fc1ccc(-c2c(-c3ccncc3)[nH]c3nccnc23)cc1` [Compound 1, 7-(4-fluorophenyl)-6-(pyridin-4-yl)-5H-Pyrrolo[2,3-b]pyrazine], the inhibition at 50 µM in series [1] is more than 80%; in series [2] (72 h, read-out: Growth inhibition of Fusarium graminearum), more than 80%; in series [2] (168 h, read-out: inhibition of DON/AcDON), more than 80%. This molecule gave a logD in series [3] of 1.33. Moreover, the efficacy in series [4] and in series [5] was not below 70% in each case.

As for `C#CCn1c(-c2ccncc2)c(-c2ccc(F)cc2)c2nccnc21` [Compound 2, 7-(4-fluorophenyl)-5-(prop-2-ylyl)-6-(pyridin-4-yl)-5H-pyrrolo[2,3-b]pyrazine], in series [1], the inhibition at 50 µM is more than 80%. This molecule also yielded a log distribution coefficient (logD) in series [3] of 2.22. For the same molecule, the efficacy in series [6], in series [7], in series [4], in series [8] and in series [5] was not below 70% throughout.
